Assay type in all cases: in vivo, mouse
Data set [1] concerns adhesion formation in wild type C57BL/6J mice. The experiment in a line: Adhesion induction (ischemic button) with HIF1A small molecule inhibitor treatment, adhesion scoring. The note with it: for adhesion formation: C57BL/6J mice, cryptotanshinone 200 mg/kg, FM19G11 2 mg/kg, echinomycin 10 or 20 ug/kg, PX12 25 mg/kg, immediately after injury, 4 hours after, then every 24 hours for 7 days, scored after 7 days; for adhesion score in a majority of the treated mice: scale 0-5, PX12 n=5, echinomycin n=15, 7 days after induction. The source says: (§1) Adhesion induction surgeries were done on wild type B6 (C57BL/6J (The Jackson Laboratory) mice aged 6-10 weeks. Mice were anesthetized by inhaled isoflurane until determined unconscious confirmed by toe-pinch test. The abdomen was disinfected with betadine and phosphate buffered saline (PBS). A left mid-clavicular incision was made in the skin running down the length of the mouse. A similar left-mid clavicular incision was made in the peritoneum running down the length of the peritoneum. The peritoneum was gently folded to the right and held down by a hemostat. A single, ischemic button was placed on the right half of the peritoneal wall by clamping a small (−5 mm diameter) piece of peritoneum and ligating the base with a 4-0 silk suture (Ethicon, 683G). Light abrasion on the button (24 times) and on the adjacent liver, cecum, and small and large bowels (7 times) was optionally performed (depending on the desired adhesion severity) with a surgical brush. Light brushing with fewer repetitions was performed to avoid pinpoint bleeding. The peritoneum was closed using 4-0 silk sutures and the skin was stapled closed (EZ Clips, 9 mm, Braintree Scientific Inc). Mice were allowed to recover on a heating pad and injected with 0.05-0.1 mg/kg of buprenorphine. Mice were followed closely and monitored daily for signs of morbidity for 7 days until euthanasia. Adhesed tissues were dissected, scored, and fixed in 2% paraformaldehyde overnight at 4 degrees.
In functional studies we assign a single score for an adhesion, based on the criteria detailed in the text above, taking into consideration both surface area contact and molecular makeup. […] We have observed adhesion areas with high surface area contact (a score of 3 or 4) with little or no collagen or macrophage involvement (F4/80-). Conversely, we have also observed adhesion areas with low surface area contact (a score of 2) with high collagen and macrophage infiltration. In these cases we will score adhesions based on surface area contact or number of organs involved, as we predict this is a more significant indicator of clinical outcome.
Adhesion induction surgeries were performed on 4-8 week old wild type B6 (C57BL/6J (The Jackson Laboratory) as previously described. 200 mg/kg of cryptotanshinone (Sigma Aldrich), 2 mg/kg of FM19G11 (Sigma Aldrich), 10 ug/kg or 20 ug/kg of echinomycin (Sigma Aldrich), or 25 mg/kg of PX12 (Sigma Aldrich) immediately after injury, 4 hours after injury, and every 24 hours subsequently for 7 days.
Adhesions were induced in wild type C57BL/6J mice using the method described above, with different intensity and scope of abrasions to induce a range of adhesion severity. These mice were allowed to recover for seven days before their adhesions were scored.
In our scheme, an adhesion with a score of 0 has no adhesion between two areas, with limited mesothelial thickening on the button (FIG. 3A). The area stains positive for MSLN and fibronectin (FIG. 3A). Mice with an adhesion score of 0 had no signs of morbidity and survived the 7 day recovery period (n=25). An adhesion score of 1 indicated a “string” adhesion, connecting the two adhesed areas with a light fibrous bridge (FIG. 3B). The string and surrounding areas were immunopositive for MSLN and fibronectin (FIG. 3B). Most mice with an adhesion score of 1 had no signs of morbidity and survived the 7 day recovery period (n=11).
All adhesions with scores of 2 or above involve a single direct contact between two tissues. […]

The next data set has as its system HIF1A. The experiment in a line: Immunofluorescence staining of mesothelium surrounding buttons after inhibitor treatment. The note with it: 7 days after induction and treatment; control adhesions positive for PDPN, MSLN and HIF1A. As to the method: Immunofluorescence studies were performed on frozen sections. Frozen sections were thawed at room temperature for ten minutes and washed in PBS twice. Slides were blocked in 5% serum for 30 minutes at room temperature. Sections were subsequently stained with primary antibodies against PDPN (1:100, mouse monoclonal, Abcam), MSLN (1:200, rabbit monoclonal, ABBIOTEC), fibronectin (1:100, rabbit monoclonal, Abcam), F4/80 (1:100, rat monoclonal, Abcam), CD31 (1:100, rabbit monoclonal, Abcam), pan-collagen (1:100, rabbit polyclonal, Abcam), WT1 (1:100, rabbit polyclonal, Abcam), CD44 (1:100, rabbit polyclonal, Abcam), HIF1A (1:100, mouse monoclonal), and S100A4 (1:100, rabbit polyclonal, Abcam), overnight at 4 degrees, and washed three times in PBS. Slides were stained were incubated with secondary antibodies conjugated to Alex Fluor 488, 594, or 647 for one to two hours at room temperature. Stains were washed once with PBST and three times with PBS before nuclear staining with Hoechst 33342 (Life Technologies), for two minutes and mounted with Fluoromount G (Southern Biotech).
To explore whether inhibiting the HIF1A pathway in vivo can prevent adhesion formation, we treated mice that had undergone adhesion induction with small molecular inhibitors against HIF1A or its immediate downstream cascade. […] Mice were euthanized after 7 days and their adhesions were imaged and scored.

Data set [2] concerns HIF1A and mesothelial target genes in injured mesothelial cells. The data set can be described thus: RNA sequencing of sorted injured mesothelium after echinomycin treatment. As to the method: A modified adhesion induction surgery was done according to previously described procedures on wild type C57BL/6J (The Jackson Laboratory). Two ischemic buttons were placed on each side of the peritoneum and no abrasion of the button or abdominal organs was done. Mice were allowed to recover for 6, 12, or 24 hours and euthanized. Ischemic buttons were dissected by cutting the base and placed in dissociation media (DMEM (Life Technologies, 10565-042), 50 mg/ml collagenase IV (Worthington Biochemical), 20 uM CaCl2). Buttons were homogenized using a single edge blade (Razor Blade Company), and incubated in dissociation media for 30 minutes at 37 C. The subsequent cell suspension was filtered through a 100 um filter and spun and washed with 2% fetal bovine serum (FBS) in PBS. Cells were treated with 1 ml of ACK lysis buffer (Life Technologies) for 5 minutes at 4 C and spun and washed. Cells were blocked with 1% goat serum (Life Technologies) for 10 minutes and stained with anti-PDPN (BioLegend, 8.1.1, 1:100), anti-LYVE-1 (eBioscience, ALY-7, 1:100), anti-CD31 (eBioscience, 390, 1:100), and anti-CD45 (BioLegend, 30-F11, 1:100) for 30 minutes at 4 C. Cells were spun down, filtered, and resuspended in 200 µl of 2% FBS in PBS. Cells were run through a FACSAria (BD Bioscences) and PDPN+LYVE1-CD31-CD45- cells were sorted directly into 750 ul of Trizol LS (Life Technologies).
Total RNA from sorted mesothelial population was isolated using Trizol (ThermoFisher) as per manufacturer's recommendation and was facilitated by addition of linear polyacrylamide (Sigma) as a carrier during RNA precipitation. Purified total RNA was treated with 4 units of RQ1 RNase-free DNase (Promega) at 37° C. for 1 hour to remove trace amounts of genomic DNA. The DNase-treated total RNA was cleaned-up using RNeasy micro kit (QIAGEN). 10-50 ng of total RNA was used as input for cDNA preparation and amplification using Ovation RNA-Seq System V2 (NuGEN). Amplified cDNA was sheared using Covaris S2 (Covaris) using the following settings: total volume […], duty cycle 10%, intensity 5, cycle/burst 100, total time 2 min. The sheared cDNA was cleaned up using Agencourt Ampure XP (Beckman Coulter) to obtain cDNA fragments>=400 base pairs (bp). 500 ng of sheared and size-selected cDNA were used as input for library preparation using NEBNext Ultra DNA Library Prep Kit for Illumina (New England BioLabs) as per manufacturer's recommendations. Resulting libraries (fragment distribution: 300-700 bp; peak 500-550 bp) were sequenced using HiSeq 4000 (Illumina) to obtain 2×150 base pair paired-end reads. The reads obtained were trimmed for base call quality and the presence of adapter sequences using Skewer (ref). High quality reads thus obtained were aligned to mouse genome using OLego (ref) and the levels of expressed mRNAs were estimated using cuffdiff2 (ref) and represented as fragments per kilo-base per million mapped reads (FPKM).
To broadly determine the causative transcriptional changes in injured mesothelial cells downstream of HIF1A inhibition, we treated 10 wild type C57BL/6J mice with (20 ug/kg) of echinomycin prior to and immediately following adhesion induction via placement of four ischemic buttons. Using a similar method as outlined above, we isolated the damaged mesothelium from buttons, sorted and isolated their RNA for sequencing.

Data set [3] deals with adhesion formation in mice. The experiment in a line: Adhesion induction with neutrophil/monocyte modulating treatments, adhesion score (Example 2). The note with it: for adhesion formation (adhesion score), pre-treatment: treated 24 hours prior to adhesion induction.
Source text: as §1
Peritoneal washes from similar time points confirmed that increased numbers of neutrophils and macrophages enter the peritoneum.

In a further data set the test system is adhesions in mice. The data set can be described thus: Pre-treatment 3 days prior to adhesion induction surgery, adhesion severity scale 0-5 (Example 3). The settings on record: pre-treated 3 days prior to surgery, evaluated 7 days post injury, versus PBS control.
Source text: as §1, with “Light abrasion on the button (24 times) and on the adjacent liver, cecum, and small and large bowels (7 times) was optionally performed (depending on the desired adhesion severity) with a surgical brush. Light brushing with fewer repetitions was performed to avoid pinpoint bleeding. The peritoneum was closed using 4-0 silk sutures and the skin was stapled closed (EZ Clips, 9 mm, Braintree Scientific Inc). Mice were allowed to recover on a heating pad and injected with 0.05-0.1 mg/kg of buprenorphine.” left out
Mice were pre-treated with either PLGA, thioglycollate, or PBS control 3 days prior to adhesion induction surgery as described in Example 1. Mice were evaluated 7 days post injury and evaluated on an adhesion severity scale from 0-5 for adhesions forming on the suture site (S) or the button (B). […]

“Also recorded” adds a separate entry of the source.

Take `Cc1ccc(C(=O)COC(=O)c2cccc(NC(=O)c3ccc([N+](=O)[O-])cc3[N+](=O)[O-])c2)cc1` [FM19G11]: the adhesion formation entry in data set [1] is on record as “reduce adhesion formation”.

Regarding `CCC(C)SSc1ncc[nH]1` (stereo not shown) [PX12], in data set [1], the adhesion formation result is “significantly reduced; also recorded: dramatic decrease in adhesion formation and frequency; also recorded: significant decreases in adhesion formation; also recorded: reduce adhesion formation”; the “adhesion score in a majority of the treated mice” value came to 0. Further, the “HIF1A immunofluorescence staining of mesothelium surrounding the buttons / adhesions” value with HIF1A is “stained with only MSLN and PDPN”.

In the case of `CS[C@H]1SC[C@H]2C(=O)N(C)[C@@H](C(C)C)C(=O)OC[C@@H](NC(=O)c3cnc4ccccc4n3)C(=O)N[C@@H](C)C(=O)N(C)[C@@H]1C(=O)N(C)[C@@H](C(C)C)C(=O)OC[C@@H](NC(=O)c1cnc3ccccc3n1)C(=O)N[C@@H](C)C(=O)N2C` [echinomycin], in data set [1], the adhesion formation result is “significantly reduced; also recorded: dramatic decrease in adhesion formation and frequency; also recorded: significant decreases in adhesion formation; also recorded: significantly reduces the formation of adhesions”; the “adhesion score in a majority of the treated mice” value turned out to be 0. The “HIF1A immunofluorescence staining of mesothelium surrounding the buttons / adhesions” value with HIF1A is “stained with only MSLN and PDPN”. Moreover, in data set [2] (20 ug/kg echinomycin), the “ITGAM, ITGB1, and ITGB2 gene expression after HIF1A inhibition” value is “little difference in gene expression”; the “PDPN, MSLN, and S100A4 expression after treatment” value is on record as “increased in expression”; the “UPK1B and WT1 expression levels after treatment” value is given as “dropped significantly”; the “number of genes normally upregulated along the 24 hour time course that were decreased with HIF1A inhibition” value is given as “over 200 genes”. Besides, the “number of genes with little or decreased expression during the 24 hour time course that were upregulated by HIF1A inhibition” value in data set [2] (20 ug/kg echinomycin) is recorded as “over 600 genes”. For the same molecule, the “expression of known HIF1A targets VEGFb and transferrin (TRF)” value in data set [2] (20 ug/kg echinomycin prior to and immediately following adhesion induction) was “downregulated”.

Take Catalase: the “adhesion formation (adhesion score), pre-treatment” value in data set [3] is recorded as “worsens adhesion formation”.

For “MCP-1: monocyte chemoattractant protein-1, a known monocyte chemoattractant”, in data set [3] (MCP-1 administration (e.g., intraperitoneally) in animal models), the “side effects in animals” value was “little or no side effects”. The “adhesion formation (adhesion score), post-surgery treatment” value in data set [3] (treated for three days following adhesion induction surgery) is given as “diminish adhesion formation; also recorded: substantial reduction in adhesion grades”.

thioglycollate: the “adhesion formation (adhesion score), pre-treatment” value in data set [3] is “diminished adhesions”. Further, in the data set with adhesions in mice, the “severity of adhesions at the button (B)” value is given as “significantly reduced severity of adhesions” and the “severity of adhesions at the suture site (S)” value is “significantly reduced severity of adhesions”.

The record behind these values is US10934355B2, “Methods and compositions for the prevention and treatment of surgical adhesions” (The Board of Trustees of the Leland Stanford Junior …, priority 2016, dated 2021).
